Read-outs that look alike come from different tables or passages of the source.

For assay [1], the target named is T1, human orexin 2 receptors (Homo sapiens, UniProt O43614).
T1 construct: expressed in transfected cells
T1 sequence (O43614 1-444): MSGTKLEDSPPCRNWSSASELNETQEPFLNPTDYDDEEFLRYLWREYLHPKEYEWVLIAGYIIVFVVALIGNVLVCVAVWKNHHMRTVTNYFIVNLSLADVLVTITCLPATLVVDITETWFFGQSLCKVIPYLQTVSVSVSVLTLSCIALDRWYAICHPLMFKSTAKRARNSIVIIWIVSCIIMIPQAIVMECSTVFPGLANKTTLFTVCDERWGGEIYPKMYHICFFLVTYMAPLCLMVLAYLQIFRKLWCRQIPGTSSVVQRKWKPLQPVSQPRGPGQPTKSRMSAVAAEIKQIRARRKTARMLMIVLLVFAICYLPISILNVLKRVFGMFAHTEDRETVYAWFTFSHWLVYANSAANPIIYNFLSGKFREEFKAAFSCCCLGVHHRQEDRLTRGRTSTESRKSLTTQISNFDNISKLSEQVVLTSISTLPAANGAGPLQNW
As to the kind of experiment: Calcium accumulation in cells (FLIPR), hOx2R. It is filed as cell-based. Conditions: inhibition of orexin A induced calcium accumulation; Cheng and Prusoff correction.
Description: (§1) Cells expressing human orexin 1 or human orexin 2 receptors, were seeded at 8,000 cells/well in 384 well black-walled clear bottom, poly-D-lysine coated plates. After 24 h, the medium was removed and cells were washed once with phosphate buffered saline and serum-deprived overnight in assay buffer (130 mM NaCl, 5.4 mM KCl, 1.8 mM CaCl2, 0.8 mM MgSO4, 0.9 mM NaH2PO4, 25 mM glucose, 20 mM HEPES, pH 7.4) containing bovine serum albumin (1% w/v).
On the day of the experiment, the cells seeded in black plates were treated with assay buffer containing the Ca^2+ sensitive fluorescent dye Fluo4-AM (2 μM), and probenecid (0.1 mM). After 1 h plates were washed twice with, and resuspended in, assay buffer containing probenecid (0.1 mM) using a multi plate washer. […] Fluorescence measurements were then continued every 1 S for 120 S followed by every 4 S for 240 S.
(§2) Compounds of formula I were tested usually in a concentration range from 10^−9 M to 10^−5M.
(§3) In the second round, performed one hour later (to allow for equilibration), Orexin A was tested either in the absence (calibration curves, Orexin A agonist controls) or in the presence of compounds of formula I to determine antagonism.

The target in assay [2] is T2, human orexin 1 receptors (Homo sapiens, UniProt O43613).
T2 sequence (O43613 1-425): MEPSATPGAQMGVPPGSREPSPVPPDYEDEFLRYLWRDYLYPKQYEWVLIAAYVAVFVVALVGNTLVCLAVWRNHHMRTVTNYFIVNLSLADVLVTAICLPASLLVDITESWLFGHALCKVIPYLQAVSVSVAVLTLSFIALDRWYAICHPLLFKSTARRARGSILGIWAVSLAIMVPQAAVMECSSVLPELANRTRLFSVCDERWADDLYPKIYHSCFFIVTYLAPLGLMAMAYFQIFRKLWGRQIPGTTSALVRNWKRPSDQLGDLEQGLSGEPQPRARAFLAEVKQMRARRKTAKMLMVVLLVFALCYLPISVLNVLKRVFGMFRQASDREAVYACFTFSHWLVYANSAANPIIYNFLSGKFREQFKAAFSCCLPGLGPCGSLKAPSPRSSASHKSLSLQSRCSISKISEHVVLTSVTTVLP
As to the kind of experiment: Calcium accumulation in cells (FLIPR), hOx1R.
Description: as §1
On the day of the experiment, the cells seeded in black plates were treated with assay buffer containing the Ca^2+ sensitive fluorescent dye Fluo4-AM (2 μM), and probenecid (0.1 mM). After 1 h plates were washed twice with, and resuspended in, assay buffer containing probenecid (0.1 mM) using a multi plate washer. The plates were placed into a FLIPR II (Fluorometric Imaging Plate Reader, Molecular Devices, Sunnyvale, Calif., USA) and baseline fluorescence (fluorescence light units, FLU) was measured (5 measurements, 2 S each; laser excitation 488 nm at 0.6-1 W, CCD camera exposure 0.4 s) before addition of buffer alone (basal) or containing test compounds (either compound of formula I alone, agonist alone or agonist in the presence of various concentrations of compounds of formula I). Fluorescence measurements were then continued every 1 S for 120 S followed by every 4 S for 240 S.
as §2, §3
Inhibition data is expressed in Table 2 as Ki [μM], converted by the Cheng and Prusoff correction (Ki=IC50/1+(L/EC50)), where IC50 is the 50% inhibition value determined in concentration response inhibition curves, EC50 is the half maximal activation concentration determined for orexin A in concentration response curves and L is the concentration of orexin A used in inhibition experiments performed in with a submaximal concentration of orexin A in the presence of up to 8 increasing concentrations of compound of formula I. Inhibition data is also expressed in Table 2 as % inhibition value measured at a concentration of 10 μM of selected compounds of formula I.

For assay [3], the target named is T1, human orexin 2 receptors. The experiment in a line: Radioligand binding assay ([3H]-SB649868 competition), hOx2R. The settings on record: competition with about 1 nM [3H]-SB649868, cell membranes.
Description: For crude cell membrane preparations, cells (CHO, Chinese hamster ovary or HEK, human embryonic kidney) expressing human orexin 1 or human orexin 2 receptors, were washed with HEPES (10 mM, pH 7.5), scraped off the culture plates with the same buffer, and centrifuged at 4° C. for 5 min at 2500×g. The cell pellet was either stored at −80° C. or used directly. Before the experiments, cell membranes were re-suspended in binding assay buffer (10 mM HEPES, 0.5% (w/v) bovine serum albumin, pH 7.5) by homogenisation with a Polytron homogeniser at 50 Hz for 20 s.
Assay [4] has as its target T2, human orexin 1 receptors. The experiment in a line: Radioligand binding assay ([3H]-SB649868 competition), hOx1R. More on the design: expressed in transfected cells. Conditions: competition with about 1 nM [3H]-SB649868, cell membranes. As to the method: The cell pellet was either stored at −80° C. or used directly. Before the experiments, cell membranes were re-suspended in binding assay buffer (10 mM HEPES, 0.5% (w/v) bovine serum albumin, pH 7.5) by homogenisation with a Polytron homogeniser at 50 Hz for 20 s. Cell membranes were also used as made available by commercial providers.
Bound radioactivity was measured, and data were analysed with the program XLFIT or Graphpad Prism. Protein concentration was determined according to the Bradford/BioRad Protein Assay Kit.
In competition experiments, cell homogenates (150 μl) were incubated in assay buffer (10 mM HEPES, pH 7.5, 0.5% (w/v) bovine serum albumin, 5 mM MgCl2, 1 mM CaCl2, and tween 0.05%) for 1 h at room temperature with about 1 nM of the radioligand [^3H]-SB649868, 66 Ci/mmole, 50 μl), and with various concentrations of compounds of the invention (50 μl) in triplicates; non-specific binding was determined in the presence of almorexant (10 μM). Reactions were terminated by vacuum filtration, 3 washes of ice cold wash buffer (Tris-HCl pH 7.4/10 mM, with NaCl 154 mM). Competition data is expressed in Table 2 as Kd [μM].

The mark [5] stands for this setting: read-out: FLIPR hOx1R Ki, inhibition of orexin A induced calcium accumulation, Cheng and Prusoff correction.

With `COc1ccnc(N2CCC3(CCCN(Cc4c[nH]c5ccccc45)C3=O)CC2)n1` [Example 13, 2-((1H-indol-3-yl)methyl)-9-(4-methoxypyrimidin-2-yl)-2,9-diazaspiro[5.5]undecan-1-one], the Ki at human orexin 2 receptors [1] turned out to be 14 nM.

On to `COC(=O)c1ccc2[nH]cc(CN3CCCC4(CCN(c5nc(C)cc(C)n5)CC4)C3=O)c2c1` [Example 115, Methyl 3-((9-(4,6-dimethylpyrimidin-2-yl)-1-oxo-2,9-diazaspiro[5.5]undecan-2-yl)methyl)-1H-indole-5-carboxylate], for which the inhibitory constant (Ki) at human orexin 1 receptors [2] (setting [5]) amounted to 21 nM; at human orexin 2 receptors [1] it was 0.7 nM.

With `Cc1cc(C#N)nc(N2CCC3(CCCN(Cc4ccccc4-n4nccn4)C3=O)CC2)n1` [Example 25, 2-(2-(2-(2H-1,2,3-triazol-2-yl)benzyl)-1-oxo-2,9-diazaspiro[5.5]undecan-9-yl)-6-methylpyrimidine-4-carbonitrile], the figures for the Ki at human orexin 1 receptors [2] and on human orexin 2 receptors [1] were 3700 nM and 68 nM, respectively. Also, the dissociation constant Kd on human orexin 2 receptors [3] was 389 nM; at human orexin 1 receptors [4], more than 10000 nM.

For `Cc1cc(C)nc(N2CCC3(CCCN(Cc4ccccc4-c4nc(C)no4)C3=O)CC2)n1` [Example 1, 9-(4,6-dimethylpyrimidin-2-yl)-2-(2-(3-methyl-1,2,4-oxadiazol-5-yl)benzyl)-2,9-diazaspiro[5.5]undecan-1-one], the values for the Ki on human orexin 1 receptors [2] (setting [5]) and on human orexin 2 receptors [1] were 1620 nM and 7 nM, respectively.

For `COc1cncc(N2CCC3(CCCN(Cc4c[nH]c5ccccc45)C3=O)CC2)n1` [Example 82, 2-((1H-indol-3-yl)methyl)-9-(6-methoxypyrazin-2-yl)-2,9-diazaspiro[5.5]undecan-1-one], the Ki was 856 nM on human orexin 1 receptors [2] and 57 nM on human orexin 2 receptors [1]. Further, the Kd is 3160 nM at human orexin 2 receptors [3] and more than 10000 nM on human orexin 1 receptors [4].

With `COc1cc(-c2nn(C)nc2CN2CCCC3(CCN(c4nc(C)cc(C)n4)CC3)C2=O)ccn1` [Example 122, 9-(4,6-dimethylpyrimidin-2-yl)-2-((5-(2-methoxypyridin-4-yl)-2-methyl-2H-1,2,3-triazol-4-yl)methyl)-2,9-diazaspiro[5.5]undecan-1-one], the inhibition constant Ki on human orexin 1 receptors [2] was 176 nM; on human orexin 2 receptors [1], 1.4 nM. In addition, the dissociation constant Kd on human orexin 2 receptors [3] amounted to 14 nM; at human orexin 1 receptors [4] it was 130 nM.

For `O=C1N(Cc2cccc3c2OCCO3)CCCC12CCN(c1cncc(Cl)n1)CC2` [Example 21, 9-(6-chloropyrazin-2-yl)-2-((2,3-dihydrobenzo[b][1,4]dioxin-5-yl)methyl)-2,9-diazaspiro[5.5]undecan-1-one], the inhibition at 10 µM at human orexin 1 receptors [2] (read-out: FLIPR hOx1R % inhibition value) was determined as 26%. In addition, the Ki on human orexin 2 receptors [1] came out at 247 nM.

Source of the values: patent US20130281463A1, “DIAZA-SPIRO[5.5]UNDECANES USEFUL AS OREXIN RECEPTOR ANTAGONISTS” (NOVARTIS AG, priority 2010, published 2013).
